Measured values as given in US20230365592A1 (Agios Pharmaceuticals, Inc., priority 2022, published 2023).

target: T1, human PAH with the R408W mutation (Homo sapiens, UniProt P00439, R408W); assay: Cell Based Phenylalanine Flux Assay; details: A375 cells expressing R408W PAH; 24 hrs with compound, then 20 µM sepiapterin and 800 µM 13C9,15N-Phenylalanine for 4 hours; 13C-Tyrosine by LC-MS; average where tested multiple times; read-out: AC50;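 further: after compound treatment, cells received sepiapterin plus isotope-labelled Phenylalanine for 4 hours, then labelled Tyrosine in the medium was quantified, 10-point 2-fold dilution series run in duplicate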
T1 construct: expressed in transfected cells
T1 sequence (P00439 1-452 R408W): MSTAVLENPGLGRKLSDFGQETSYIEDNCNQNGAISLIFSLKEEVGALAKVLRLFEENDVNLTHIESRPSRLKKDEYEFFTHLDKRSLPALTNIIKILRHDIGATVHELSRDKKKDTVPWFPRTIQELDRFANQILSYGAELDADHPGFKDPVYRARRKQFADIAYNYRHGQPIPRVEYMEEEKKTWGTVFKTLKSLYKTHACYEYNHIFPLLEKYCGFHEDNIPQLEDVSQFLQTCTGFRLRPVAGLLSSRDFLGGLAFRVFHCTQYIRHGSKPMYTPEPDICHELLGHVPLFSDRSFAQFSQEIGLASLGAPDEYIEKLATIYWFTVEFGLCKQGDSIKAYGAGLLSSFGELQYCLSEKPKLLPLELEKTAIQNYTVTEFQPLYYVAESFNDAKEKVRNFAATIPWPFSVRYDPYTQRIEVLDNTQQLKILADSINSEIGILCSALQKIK

AC50 [µM]	SMILES
1 to 5	Cn1ncnc1C(=O)N1CCc2[nH]cnc2C1c1cc2cccc(Cl)n2n1 (centres unmarked)
> 5	COc1cccn2nc(C3c4nc[nH]c4CCN3C(=O)c3cnn4cc(-c5cnn(C)c5)ccc34)cc12 (centres unmarked)
1 to 5	COc1cccn2nc(C3c4nc[nH]c4CCN3C(=O)c3nnc(-c4ncccc4F)o3)cc12 (centres unmarked)
1 to 5	Cn1cc(-c2ncc(C(=O)N3CCc4[nH]cnc4C3c3cc4ccccn4n3)o2)cn1 (centres unmarked)
1 to 5	O=C(C1CC1(F)F)N1CCc2[nH]cnc2C1c1cc2ccccn2n1 [4S enantiomer of 5-[(1S)-2,2-difluorocyclopropanecarbonyll-4]
> 5	Cc1nnc(N2CCc3[nH]cnc3C2c2cc3cccc(F)n3n2)o1 (centres unmarked)
1 to 5	Cc1nc(C(C)(C)O)oc1C(=O)N1CCc2[nH]cnc2C1c1cc2cccc(C(F)(F)F)n2n1 (centres unmarked)
> 5	Cc1ccc2c(C(=O)N3CCc4[nH]cnc4C3c3cc4cccc(Cl)n4n3)cnn2c1 (centres unmarked)
1 to 5	O=C(c1nnc(-c2ccccn2)o1)N1CCc2[nH]cnc2C1c1cc2cc(F)ccn2n1 (centres unmarked)
1 to 5	Cc1cccc2cc(C3c4nc[nH]c4CCN3c3nnc(C4CC4)o3)nn12 (centres unmarked)
> 5	Cc1cccn2nc(C3c4nc[nH]c4CCN3c3nnc(-c4ccncn4)o3)cc12 (centres unmarked)
1 to 5	Cc1nnc(C(=O)N2CCc3[nH]cnc3C2c2cc3ccccn3n2)s1 (centres unmarked)
1 to 5	O=C(c1ccnn1-c1ccccn1)N1CCc2[nH]cnc2C1c1cc2ccccn2n1 (centres unmarked)

same assay, conditions: A375 cells expressing human PAH R408W; 24 hrs compound incubation; 13C-Tyrosine by LC-MS; average where tested multiple times; read-out: AC50

AC50 [µM]	SMILES
1 to 5	Cn1cc(-c2nnc(C(=O)N3CCc4[nH]cnc4[C@@H]3c3cc4ccc(C(F)(F)F)cn4n3)o2)cn1 [Example 2417, (R)-(5-(1-methyl-1H-pyrazol-4-yl)-1,3,4-oxadiazol-2-yl)(4-(6-(trifluoromethyl)pyrazolo[1,5-a]pyridin-2-yl)-6,7-dihydro-1H-imidazo[4,5-c]pyridin-5(4H)-yl)methanone]
> 5	COc1cccn2nc([C@H]3c4nc[nH]c4CCN3c3nnc(C(F)(F)F)o3)cc12 [Example 2165, (R)-2-(4-(4-methoxypyrazolo[1,5-a]pyridin-2-yl)-1,4,6,7-tetrahydro-5H-imidazo[4,5-c]pyridin-5-yl)-5-(trifluoromethyl)-1,3,4-oxadiazole]
< 0.5	Fc1cccn2nc([C@@H]3c4nc[nH]c4CCN3c3ccccc3)cc12 [Example 2313, (S)-4-(4-fluoropyrazolo[1,5-a]pyridin-2-yl)-5-phenyl-4,5,6,7-tetrahydro-1H-imidazo[4,5-c]pyridine]
< 0.5	Cc1cc(-c2nnc(C(=O)N3CCc4[nH]cnc4[C@H]3c3cc4c(C(C)C)cccn4n3)o2)nn1C [Example 2007, (S)-(5-(1,5-dimethyl-1H-pyrazol-3-yl)-1,3,4-oxadiazol-2-yl)(4-(4-isopropylpyrazolo[1,5-a]pyridin-2-yl)-1,4,6,7-tetrahydro-5H-imidazo[4,5-c]pyridin-5-yl)methanone]
> 5	CC(C)(C)c1nnc(C(=O)N2CCc3[nH]cnc3[C@@H]2c2cc3c(C4CC4)cccn3n2)o1 [Example 1841, (R)-(5-(tert-butyl)-1,3,4-oxadiazol-2-yl)(4-(4-cyclopropylpyrazolo[1,5-a]pyridin-2-yl)-1,4,6,7-tetrahydro-5H-imidazo[4,5-c]pyridin-5-yl)methanone]

same assay, conditions: A375 cells expressing human R408W PAH; 24 hrs compound incubation; 13C-Tyrosine by LC-MS; average where tested multiple times; read-out: AC50

AC50 [µM]	SMILES
< 0.5	FC(F)(F)c1cccn2nc([C@@H]3c4nc[nH]c4CCN3c3ncccn3)cc12 [Example 1692, (S)-5-(pyrimidin-2-yl)-4-(4-(trifluoromethyl)pyrazolo[1,5-a]pyridin-2-yl)-4,5,6,7-tetrahydro-1H-imidazo[4,5-c]pyridine]
> 5	Cn1nccc1C(=O)N1CCc2[nH]cnc2[C@@H]1c1cc2ccccn2n1 [Example 661, (R)-(1-methyl-1H-pyrazol-5-yl)(4-(pyrazolo[1,5-a]pyridin-2-yl)-6,7-dihydro-1H-imidazo[4,5-c]pyridin-5(4H)-yl)methanone]
< 0.5	Cn1cc(-c2nnc(C(=O)N3CCc4[nH]cnc4[C@H]3c3cc4c(F)cccn4n3)o2)cn1 [Example 728, (S)-(4-(4-fluoropyrazolo[1,5-a]pyridin-2-yl)-6,7-dihydro-1H-imidazo[4,5-c]pyridin-5(4H)-yl)(5-(1-methyl-1H-pyrazol-4-yl)-1,3,4-oxadiazol-2-yl)methanone]
1 to 5	O=C(c1nnc(-c2cnn(C(F)F)c2)o1)N1CCc2[nH]cnc2[C@@H]1c1cc2c(Cl)cccn2n1 [Example 1135, (R)-(4-(4-chloropyrazolo[1,5-a]pyridin-2-yl)-6,7-dihydro-1H-imidazo[4,5-c]pyridin-5(4H)-yl)(5-(1-(difluoromethyl)-1H-pyrazol-4-yl)-1,3,4-oxadiazol-2-yl)methanone]
1 to 5	O=C(c1cnn2cc(C3CC3)ccc12)N1CCc2[nH]cnc2[C@@H]1c1cc2c(C(F)F)cccn2n1 [Example 1743, (R)-(6-cyclopropylpyrazolo[1,5-a]pyridin-3-yl)(4-(4-(difluoromethyl)pyrazolo[1,5-a]pyridin-2-yl)-6,7-dihydro-1H-imidazo[4,5-c]pyridin-5(4H)-yl)methanone]
< 0.5	O=C(c1nnc(-c2cccnc2)o1)N1CCc2[nH]cnc2[C@H]1c1cc2cccc(C(F)F)n2n1 [Example 1468, (S)-(4-(7-(difluoromethyl)pyrazolo[1,5-a]pyridin-2-yl)-6,7-dihydro-1H-imidazo[4,5-c]pyridin-5(4H)-yl)(5-(pyridin-3-yl)-1,3,4-oxadiazol-2-yl)methanone]
< 0.5	O=C(c1nnc(-c2cccnc2)o1)N1CCc2[nH]cnc2[C@H]1c1cc2cccc(Cl)n2n1 [Example 1306, (S)-(4-(7-chloropyrazolo[1,5-a]pyridin-2-yl)-6,7-dihydro-1H-imidazo[4,5-c]pyridin-5(4H)-yl)(5-(pyridin-3-yl)-1,3,4-oxadiazol-2-yl)methanone]
< 0.5	Cc1ccc2c(C(=O)N3CCc4[nH]cnc4[C@H]3c3cc4c(Cl)cccn4n3)cnn2c1 [Example 1714, (S)-(4-(4-chloropyrazolo[1,5-a]pyridin-2-yl)-6,7-dihydro-1H-imidazo[4,5-c]pyridin-5(4H)-yl)(6-methylpyrazolo[1,5-a]pyridin-3-yl)methanone]
0.5 to 1	COc1ccc2c(C(=O)N3CCc4[nH]cnc4[C@H]3c3cc4cccc(C)n4n3)cnn2c1 [Example 1718, (S)-(6-methoxypyrazolo[1,5-a]pyridin-3-yl)(4-(7-methylpyrazolo[1,5-a]pyridin-2-yl)-6,7-dihydro-1H-imidazo[4,5-c]pyridin-5(4H)-yl)methanone]
0.5 to 1	O=C(c1nnc(-c2ncccn2)o1)N1CCc2[nH]cnc2[C@H]1c1cc2c(F)cccn2n1 [Example 1313, (S)-(4-(4-fluoropyrazolo[1,5-a]pyridin-2-yl)-6,7-dihydro-1H-imidazo[4,5-c]pyridin-5(4H)-yl)(5-(pyrimidin-2-yl)-1,3,4-oxadiazol-2-yl)methanone]
< 0.5	O=C(c1nnc(-c2ccccn2)o1)N1CCc2[nH]cnc2[C@H]1c1cc2c(Cl)cccn2n1 [Example 735, (S)-(4-(4-chloropyrazolo[1,5-a]pyridin-2-yl)-6,7-dihydro-1H-imidazo[4,5-c]pyridin-5(4H)-yl)(5-(pyridin-2-yl)-1,3,4-oxadiazol-2-yl)methanone]
1 to 5	O=C(c1cnn2cc(-c3ccccn3)ccc12)N1CCc2[nH]cnc2[C@@H]1c1cc2ccccn2n1 [Example 1417, (R)-(4-(pyrazolo[1,5-a]pyridin-2-yl)-6,7-dihydro-1H-imidazo[4,5-c]pyridin-5(4H)-yl)(6-(pyridin-2-yl)pyrazolo[1,5-a]pyridin-3-yl)methanone]
0.5 to 1	Cc1cccn2nc([C@@H]3c4nc[nH]c4CCN3C(=O)c3cnn4cc(-c5cnn(C)c5)ccc34)cc12 [Example 1630, (S)-(6-(1-methyl-1H-pyrazol-4-yl)pyrazolo[1,5-a]pyridin-3-yl)(4-(4-methylpyrazolo[1,5-a]pyridin-2-yl)-6,7-dihydro-1H-imidazo[4,5-c]pyridin-5(4H)-yl)methanone]
1 to 5	Cc1cccn2nc([C@H]3c4nc[nH]c4CCN3C(=O)c3nnc(C4(C)CC4)o3)cc12 [Example 1322, (R)-(5-(1-methylcyclopropyl)-1,3,4-oxadiazol-2-yl)(4-(4-methylpyrazolo[1,5-a]pyridin-2-yl)-6,7-dihydro-1H-imidazo[4,5-c]pyridin-5(4H)-yl)methanone]
0.5 to 1	Cn1ccc(-c2nnc(C(=O)N3CCc4[nH]cnc4[C@H]3c3cc4ccc(F)cn4n3)o2)n1 [Example 1102, (S)-(4-(6-fluoropyrazolo[1,5-a]pyridin-2-yl)-6,7-dihydro-1H-imidazo[4,5-c]pyridin-5(4H)-yl)(5-(1-methyl-1H-pyrazol-3-yl)-1,3,4-oxadiazol-2-yl)methanone]
1 to 5	O=C(c1ccnn1C(F)(F)F)N1CCc2[nH]cnc2[C@@H]1c1cc2c(F)cccn2n1 [Example 843, (R)-(4-(4-fluoropyrazolo[1,5-a]pyridin-2-yl)-6,7-dihydro-1H-imidazo[4,5-c]pyridin-5(4H)-yl)(1-(trifluoromethyl)-1H-pyrazol-5-yl)methanone]
> 5	O=C(c1nnc(-c2ccn(C(F)(F)F)n2)o1)N1CCc2[nH]cnc2[C@@H]1c1cc2ccccn2n1 [Example 1507, (R)-(4-(pyrazolo[1,5-a]pyridin-2-yl)-6,7-dihydro-1H-imidazo[4,5-c]pyridin-5(4H)-yl)(5-(1-(trifluoromethyl)-1H-pyrazol-3-yl)-1,3,4-oxadiazol-2-yl)methanone]
